Measurements taken from the supplement of paper PMC10307832.

Columns and labels:
Assay in all cases: relative viability (nuclei count vs DMSO), 5 days (fraction); higher = more cells survive
[1] = test system: COR-L23
Procedure, shortened: (§1)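 Each reported value is a median over duplicate plates. It expresses relative viability: treated-well nuclei count divided by vehicle-well nuclei count. Lung cancer cell lines in 1536-well plates were dosed by pin tool a day after seeding, alone with one drug or with a fixed anchor-drug dose plus five library-drug doses (not always all listed) in √10 steps, and nuclei were counted after 5 days.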

[2] = test system: ChaGo-K-1
Procedure, shortened: as §1

[3] = test system: EPLC-272H
Procedure, shortened: as §1

[4] = test system: H3255
Procedure, shortened: as §1

[5] = test system: HARA
Procedure, shortened: as §1

[6] = test system: HOP-62
Procedure, shortened: as §1

[7] = test system: LCLC-97TM1
Procedure, shortened: as §1

[8] = test system: LXF-289
Procedure, shortened: as §1

[9] = test system: NCI-H1395
Procedure, shortened: as §1

[10] = test system: NCI-H1437
Procedure, shortened: as §1

[11] = test system: NCI-H1650
Procedure, shortened: as §1

Structure (SMILES): Cc1csc(=NC2CCCCC2)n1/N=C/c1ccc(O)c(O)c1O [MIM1] + CCNC(=O)c1noc(-c2cc(C(C)C)c(O)cc2O)c1-c1ccc(CN2CCOCC2)cc1 [Luminespib] (partner 0.01 µM)
- relative viability ([1]; first compound 0.2 µM): 0.555
- relative viability ([1]; first compound 0.6325 µM): 0.75
- relative viability ([1]; first compound 2 µM): 0.7
- relative viability ([1]; first compound 6.325 µM): 0.469
- relative viability ([1]; first compound 20 µM): 0.321
- relative viability ([2]; first compound 0.2 µM): 0.559
- relative viability ([2]; first compound 0.6325 µM): 0.735
- relative viability ([2]; first compound 2 µM): 0.473
- relative viability ([2]; first compound 6.325 µM): 0.323
- relative viability ([2]; first compound 20 µM): 0.158
- relative viability ([3]; first compound 0.2 µM): 0.491
- relative viability ([3]; first compound 0.6325 µM): 0.266
- relative viability ([3]; first compound 2 µM): 0.205
- relative viability ([3]; first compound 6.325 µM): 0.143
- relative viability ([3]; first compound 20 µM): 0.122
- relative viability ([4]; first compound 0.2 µM): 0.865
- relative viability ([4]; first compound 0.6325 µM): 0.85
- relative viability ([4]; first compound 2 µM): 0.798
- relative viability ([4]; first compound 6.325 µM): 0.769
- relative viability ([4]; first compound 20 µM): 0.34
- relative viability ([5]; first compound 0.2 µM): 0.866
- relative viability ([5]; first compound 2 µM): 0.776
- relative viability ([5]; first compound 6.325 µM): 0.251
- relative viability ([5]; first compound 20 µM): 0.0856
- relative viability ([6]; first compound 0.2 µM): 1.01
- relative viability ([6]; first compound 0.6325 µM): 0.841
- relative viability ([6]; first compound 2 µM): 0.893
- relative viability ([6]; first compound 6.325 µM): 0.758
- relative viability ([6]; first compound 20 µM): 0.301
- relative viability ([7]; first compound 0.2 µM): 0.783
- relative viability ([7]; first compound 0.6325 µM): 0.733
- relative viability ([7]; first compound 2 µM): 0.755
- relative viability ([7]; first compound 6.325 µM): 0.512
- relative viability ([7]; first compound 20 µM): 0.238
- relative viability ([8]; first compound 0.2 µM): 0.708
- relative viability ([8]; first compound 0.6325 µM): 0.649
- relative viability ([8]; first compound 2 µM): 0.659
- relative viability ([8]; first compound 6.325 µM): 0.54
- relative viability ([8]; first compound 20 µM): 0.453
- relative viability ([9]; first compound 0.2 µM): 0.66
- relative viability ([9]; first compound 0.6325 µM): 0.547
- relative viability ([9]; first compound 2 µM): 0.755
- relative viability ([9]; first compound 6.325 µM): 0.573
- relative viability ([9]; first compound 20 µM): 0.293
- relative viability ([10]; first compound 0.2 µM): 1.07
- relative viability ([10]; first compound 0.6325 µM): 1.1
- relative viability ([10]; first compound 2 µM): 0.992
- relative viability ([10]; first compound 6.325 µM): 0.846
- relative viability ([10]; first compound 20 µM): 0.452
- relative viability ([11]; first compound 0.2 µM): 0.223
- relative viability ([11]; first compound 0.6325 µM): 0.189
- relative viability ([11]; first compound 2 µM): 0.221
- relative viability ([11]; first compound 6.325 µM): 0.19
